Where two headings read alike, the source gives them in different places.

In patent US20050197350A1, “Novel quinoline, tetrahydroquinazoline, and pyrimidine derivatives and methods of treatment related to the use thereof” (TAISHO PHARMACEUTICAL CO., LTD., priority 2003, published 2005) one finds class data, which are given here for 28 compounds.

The subject of the test is MCH receptors. The experiment in a line: MCH receptor activity class (method not given).
The mark [1] stands for this setting: class by percent of control at 10^-7 M or IC50.
Where [2] appears, read: class by percent of control at 10^−7 M or IC50.
The mark [3] stands for this setting: activity class 1-3: percent of control at 10^-7 M or IC50.
Where [4] appears, read: MCH receptor, class by percent of control at 10^-7 M or IC50.
The mark [5] stands for this setting: activity class per percent of control at 10^-7 M or IC50.
Setting [6] is: MCH receptor activity class 1-3 (percent of control at 10^-7 M or IC50).

For the compound `CN(C)c1cc(N[C@H]2CC[C@@H](NC(=O)CCc3ccccc3O)CC2)nc2ccccc12` [compound 679], under setting [1], the class is on record as 3 (Class 3 The value of percent of control at 10^−7 M was more than 60% or the value of IC50 was more than 200 nM.).

As for `COc1ccccc1Oc1ncccc1C(=O)N[C@H]1CC[C@@H](Nc2ncc(C)c(N(C)C)n2)CC1` [compound 2890, N-(cis-4-{[4-(dimethylamino)-5-methylpyrimidin-2-yl]amino}cyclohexyl)-2-(2-methoxyphenoxy)nicotinamide], under setting [2], the class is given as 1 (Class 1: The value of percent of control at 10^−7 M was less than 40% or the value of IC50 was less than 50 nM.).

In the case of `COc1ccccc1OC(=O)NC[C@H]1CC[C@@H](Nc2nc3c(c(N(C)C)n2)CCCC3)CC1` [compound 1604], the class under setting [3] is 3 (Class 3 The value of percent of control at 10^−7 M was more than 60% or the value of IC50 was more than 200 nM.).

On to `COc1cc(COC(=O)N[C@H]2CC[C@@H](Nc3cc(N(C)C)c4ccccc4n3)CC2)c([N+](=O)[O-])cc1OC` [compound 119], for which the class under setting [4] was 3 (Class 3 The value of percent of control at 10^−7 M was more than 60% or the value of IC50 was more than 200 nM.).

In the case of `CCc1ccccc1CNC[C@H]1CC[C@@H](Nc2cc(N(C)C)c3ccccc3n2)CC1` [compound 1201], under setting [1], the class is 3 (Class 3 The value of percent of control at 10^−7 M was more than 60% or the value of IC50 was more than 200 nM.).

As for `CN(C)c1ccnc(N[C@H]2CC[C@@H](NC(=O)c3ccc4ncsc4c3)CC2)n1` [compound 918], under setting [1], the class is on record as 3 (Class 3 The value of percent of control at 10^−7 M was more than 60% or the value of IC50 was more than 200 nM.).

On to `CN(C)c1cc(N[C@H]2CC[C@@H](CNCc3cccc(Br)c3)CC2)nc2ccccc12` [compound 1143], for which, under setting [5], the class was 3 (Class 3 The value of percent of control at 10^−7 M was more than 60% or the value of IC50 was more than 200 nM.).

On to `CN(C)c1cc(N[C@H]2CC[C@@H](CNC(=O)c3ccc(F)cc3)CC2)nc2ccccc12` [compound 164, N-[(cis-4-{[4-(dimethylamino)quinolin-2-yl]amino}cyclohexyl)methyl]-4-fluorobenzamide], for which the class under setting [4] is on record as 3 (Class 3 The value of percent of control at 10^−7 M was more than 60% or the value of IC50 was more than 200 nM.).

`Cc1ccccc1CNC(=O)N[C@H]1CC[C@@H](Nc2cc(N(C)C)c3ccccc3n2)CC1` [compound 2146]: under setting [1], the class was 3 (Class 3 The value of percent of control at 10^−7 M was more than 60% or the value of IC50 was more than 200 nM.).

As to `CN(C)c1nc(N[C@H]2CC[C@@H](NC(=O)Nc3ccc(Cl)c(Cl)c3)CC2)nc2c1CCCC2` [compound 1818], under setting [1], the class is 3 (Class 3 The value of percent of control at 10^−7 M was more than 60% or the value of IC50 was more than 200 nM.).

In the case of `CN(C)c1cc(N[C@H]2CC[C@@H](CNC(=O)c3ccccc3SC(F)F)CC2)nc2ccccc12` [compound 209], under setting [4], the class is listed as 3 (Class 3 The value of percent of control at 10^−7 M was more than 60% or the value of IC50 was more than 200 nM.).

Turning to `CN(C)c1cc(N[C@H]2CC[C@@H](CNC(=O)Nc3c(Br)cc(F)cc3Br)CC2)nc2ccccc12` [compound 2398], under setting [6], the class was 3 (Class 3 The value of percent of control at 10^−7 M was more than 60% or the value of IC50 was more than 200 nM.).

Consider `Cc1cc(N(C)C)nc(N[C@H]2CC[C@@H](NC(=O)c3ccc(Cl)cc3)CC2)n1` [compound 2986], for which the class under setting [2] is listed as 1 (Class 1: The value of percent of control at 10^−7 M was less than 40% or the value of IC50 was less than 50 nM.).

Take `CN(C)c1cc(N[C@H]2CC[C@@H](NC(=O)c3cnc4ccccc4c3)CC2)nc2ccccc12` [compound 776]: the class under setting [1] is 3 (Class 3 The value of percent of control at 10^−7 M was more than 60% or the value of IC50 was more than 200 nM.).

With `CN(C)c1cc(N[C@H]2CC[C@@H](CNC(=O)c3cn(Cc4ccccc4)c4ccccc34)CC2)nc2ccccc12` [compound 805], the class under setting [1] is on record as 3 (Class 3 The value of percent of control at 10^−7 M was more than 60% or the value of IC50 was more than 200 nM.).

For the compound `CN(C)c1ccnc(N[C@H]2CC[C@@H](CNC(=O)/C=C/c3cccc([N+](=O)[O-])c3)CC2)n1` [compound 934], the class under setting [1] is on record as 1 (Class 1: The value of percent of control at 10^−7 M was less than 40% or the value of IC50 was less than 50 nM.).

In the case of `CN(C)c1cc(N[C@H]2CC[C@@H](CNCCc3ccc(Br)cc3)CC2)nc2ccccc12` [compound 1463], the class under setting [1] is 3 (Class 3 The value of percent of control at 10^−7 M was more than 60% or the value of IC50 was more than 200 nM.).

Regarding `Cc1cc(N(C)C)nc(N[C@H]2CC[C@@H](C(=O)NCc3cc(Cl)ccc3Cl)CC2)n1` [Example 2573, cis-N-(2,5-dichlorobenzyl)-4-{[4-(dimethylamino)-6-methylpyrimidin-2-yl]amino}cyclohexanecarboxamide], the class was determined as 1.

Regarding `CCOc1ccccc1NC(=S)N[C@H]1CC[C@@H](Nc2cc(N(C)C)c3ccccc3n2)CC1` [compound 2302], under setting [6], the class is reported as 3 (Class 3 The value of percent of control at 10^−7 M was more than 60% or the value of IC50 was more than 200 nM.).

For the compound `COc1ccc(OC)c(CC(=O)N[C@H]2CC[C@@H](Nc3nccc(N(C)C)n3)CC2)c1` [compound 253], the class under setting [1] was 3 (Class 3 The value of percent of control at 10^−7 M was more than 60% or the value of IC50 was more than 200 nM.).

With `CN(C)c1nc(N[C@H]2CC[C@@H](CNC(=O)c3cc(Cl)cc(Cl)c3)CC2)nc2c1CCCC2` [compound 592], under “class 1-3 by percent of control at 10^-7 M or IC50”, the class is recorded as 3 (Class 3 The value of percent of control at 10^−7 M was more than 60% or the value of IC50 was more than 200 nM.).

Turning to `CN(C)c1ccnc(N[C@H]2CC[C@@H](CNC(=O)Oc3ccccc3)CC2)n1` [compound 1652], under setting [3], the class is on record as 3 (Class 3 The value of percent of control at 10^−7 M was more than 60% or the value of IC50 was more than 200 nM.).

Turning to `CN(C)c1ccnc(N[C@H]2CC[C@@H](NC(=O)OCc3ccccc3Cl)CC2)n1` [compound 1636], the class under setting [3] was 3 (Class 3 The value of percent of control at 10^−7 M was more than 60% or the value of IC50 was more than 200 nM.).

Take `Cc1cc(CN[C@H]2CC[C@@H](Nc3cc(N(C)C)c4ccccc4n3)CC2)c(C)n1-c1ccccc1` [compound 1109]: under setting [5], the class was 3 (Class 3 The value of percent of control at 10^−7 M was more than 60% or the value of IC50 was more than 200 nM.).

On to `COc1ccc(C(=O)N[C@H]2CC[C@@H](Nc3nc(C)cc(N(C)C)n3)CC2)cc1` [compound 2956], for which, under setting [2], the class is 3 (Class 3 The value of percent of control at 10^−7 M was more than 60% or the value of IC50 was more than 200 nM.).

Take `Cc1ccc(C(=O)NC[C@H]2CC[C@@H](Nc3nccc(N(C)C)n3)CC2)c(F)c1F` [compound 405]: under setting [1], the class is on record as 3 (Class 3 The value of percent of control at 10^−7 M was more than 60% or the value of IC50 was more than 200 nM.).

With `Cc1ccc(-c2ccc(C(=O)NC[C@H]3CC[C@@H](Nc4nc5c(c(N(C)C)n4)CCCC5)CC3)o2)c([N+](=O)[O-])c1` [compound 1074], the class under setting [5] is 3 (Class 3 The value of percent of control at 10^−7 M was more than 60% or the value of IC50 was more than 200 nM.).

In the case of `CN(C)c1cc(N[C@H]2CC[C@@H](NC(=O)c3ccc([N+](=O)[O-])cc3F)CC2)nc2ccccc12` [compound 773], under setting [1], the class was 3 (Class 3 The value of percent of control at 10^−7 M was more than 60% or the value of IC50 was more than 200 nM.).
